Test results published in patent US20240044899A1, “BIOMARKERS FOR FIMEPINOSTAT THERAPY” (Curis, Inc, priority 2021, published 2024).

Assays:
[1] = Phase 1 and phase 2 clinical studies of fimepinostat, treatment-emergent adverse events (CTCAE v4.03); type: in vivo, human; settings: for TEAE Abdominal pain, patients n (%) / TEAE Anemia, patients n (%) / TEAE Arthralgia, patients n (%) / TEAE Back pain, patients n (%) / TEAE Constipation, patients n (%) / TEAE Cough, patients n (%) / TEAE Decreased appetite, patients n (%) / TEAE Diarrhea, patients n (%) / TEAE Dizziness, patients n (%) / TEAE Dyspnea, patients n (%) / TEAE Edema peripheral, patients n (%) / TEAE Fatigue, patients n (%) / TEAE Hypokalemia, patients n (%) / TEAE Hypomagnesaemia, patients n (%) / TEAE Hypophosphatemia, patients n (%) / TEAE Lymphocyte count decreased, patients n (%) / TEAE Nausea, patients n (%) / TEAE Neutropenia, patients n (%) / TEAE Pain in extremity, patients n (%) / TEAE Pyrexia, patients n (%) / TEAE Thrombocytopenia, patients n (%) / TEAE Upper respiratory tract infection, patients n (%) / TEAE Vomiting, patients n (%) / TEAE Weight decreased, patients n (%) / TEAE White blood cell count decreased, patients n (%): intention to treat population (n = 58)
Method: Patients received fimepinostat capsules (Pharmatek Laboratories Inc., San Diego, CA, USA) orally, within 30 minutes of a meal, in 21-day cycles until disease progression was documented or other discontinuation criteria were met. In the phase 2 protocol, change in dose and/or schedule intensity of fimepinostat were allowed as per protocol due to toxicity. Safety and tolerability were assessed by the incidence and severity of adverse events as determined by NCI Common Terminology Criteria for Adverse Events (CTCAE v4.03) in both protocols.
The intention to-treat-population included al patients from both protocols who received at least one dose of fimepinostat. The evaluable population includes all patients who received at least one dose of study drug (phase 1) or one full cycle of treatment (phase 2) and completed at least one post-baseline disease assessment. Patients were re-staged according to the Revised Response Criteria for Malignant Lymphoma.^18
All patients received fimepinostat 60 mg by mouth 5 days on/2 days off as the starting dose with the exception of 1 patient enrolled in the phase 1 protocol who received 60 mg by mouth three times weekly. Three patients enrolled in the phase 1 protocol received concurrent rituximab.
Treatment-emergent adverse events (TEAE) occurring per patient by highest grade experienced with a frequency of ≥10% are listed in Table 5. The most common TEAE of any grade were diarrhea (72%), nausea (52%) and thrombocytopenia (38%). The most common grade 3 or 4 adverse events were […], neutropenia (15%), diarrhea (12%) and anemia (12%). Three patients experienced grade 5 TEAE: respiratory failure deemed unlikely related to treatment in 1 patient, sepsis deemed not related to treatment in 1 patient and tracheal obstruction deemed not related to treatment in 1 patient. Two non-evaluable patients discontinued treatment due to TEAE: grade 2 vomiting deemed related to treatment occurring in 1 patient and grade 4 hypercalcemia deemed unlikely related to treatment in 1 patient.

[2] = tested on: DLBCL patients with MYC-altered disease; settings: 11 evaluable DLBCL patients with MYC-altered disease, phase 1, cited from earlier work

COc1ccc(-c2nc(N3CCOCC3)c3sc(CN(C)c4ncc(C(=O)NO)cn4)cc3n2)cn1 [fimepinostat, Fimepinostat]
TEAE Abdominal pain, patients n (%) ([1]; Grade 3): 3 (5)
TEAE Anemia, patients n (%) ([1]; Grade 3): 7 (12)
TEAE Arthralgia, patients n (%) ([1]; Grade 3): 0 (0)
TEAE Back pain, patients n (%) ([1]; Grade 3): 1 (2)
TEAE Constipation, patients n (%) ([1]; Grade 3): 0 (0)
TEAE Cough, patients n (%) ([1]; Grade 3): 0 (0)
TEAE Decreased appetite, patients n (%) ([1]; Grade 3): 0 (0)
TEAE Diarrhea, patients n (%) ([1]; Grade 3): 7 (12)
TEAE Dizziness, patients n (%) ([1]; Grade 3): 0 (0)
TEAE Dyspnea, patients n (%) ([1]; Grade 3): 3 (5)
TEAE Edema peripheral, patients n (%) ([1]; Grade 3): 0 (0)
TEAE Fatigue, patients n (%) ([1]; Grade 3): 1 (2)
TEAE Hypokalemia, patients n (%) ([1]; Grade 3): 6 (10)
TEAE Hypomagnesaemia, patients n (%) ([1]; Grade 3): 0 (0)
TEAE Hypophosphatemia, patients n (%) ([1]; Grade 3): 4 (7)
TEAE Lymphocyte count decreased, patients n (%) ([1]; Grade 3): 3 (5)
TEAE Nausea, patients n (%) ([1]; Grade 3): 0 (0)
TEAE Neutropenia, patients n (%) ([1]; Grade 3): 7 (12)
TEAE Pain in extremity, patients n (%) ([1]; Grade 3): 1 (2)
TEAE Pyrexia, patients n (%) ([1]; Grade 3): 1 (2)
TEAE Thrombocytopenia, patients n (%) ([1]; Grade 3): 11 (19)
TEAE Upper respiratory tract infection, patients n (%) ([1]; Grade 3): 0 (0)
TEAE Vomiting, patients n (%) ([1]; Grade 3): 1 (2)
TEAE Weight decreased, patients n (%) ([1]; Grade 3): 1 (2)
TEAE White blood cell count decreased, patients n (%) ([1]; Grade 3): 3 (5)
TEAE Abdominal pain, patients n (%) ([1]; Grade 4): 0 (0)
TEAE Anemia, patients n (%) ([1]; Grade 4): 0 (0)
TEAE Arthralgia, patients n (%) ([1]; Grade 4): 0 (0)
TEAE Back pain, patients n (%) ([1]; Grade 4): 0 (0)
TEAE Constipation, patients n (%) ([1]; Grade 4): 0 (0)
TEAE Cough, patients n (%) ([1]; Grade 4): 0 (0)
TEAE Decreased appetite, patients n (%) ([1]; Grade 4): 0 (0)
TEAE Diarrhea, patients n (%) ([1]; Grade 4): 0 (0)
TEAE Dizziness, patients n (%) ([1]; Grade 4): 0 (0)
TEAE Dyspnea, patients n (%) ([1]; Grade 4): 0 (0)
TEAE Edema peripheral, patients n (%) ([1]; Grade 4): 0 (0)
TEAE Fatigue, patients n (%) ([1]; Grade 4): 0 (0)
TEAE Hypokalemia, patients n (%) ([1]; Grade 4): 0 (0)
TEAE Hypomagnesaemia, patients n (%) ([1]; Grade 4): 0 (0)
TEAE Hypophosphatemia, patients n (%) ([1]; Grade 4): 0 (0)
TEAE Lymphocyte count decreased, patients n (%) ([1]; Grade 4): 0 (0)
TEAE Nausea, patients n (%) ([1]; Grade 4): 0 (0)
TEAE Neutropenia, patients n (%) ([1]; Grade 4): 2 (3)
TEAE Pain in extremity, patients n (%) ([1]; Grade 4): 0 (0)
TEAE Pyrexia, patients n (%) ([1]; Grade 4): 0 (0)
TEAE Thrombocytopenia, patients n (%) ([1]; Grade 4): 3 (5)
TEAE Upper respiratory tract infection, patients n (%) ([1]; Grade 4): 0 (0)
TEAE Vomiting, patients n (%) ([1]; Grade 4): 0 (0)
TEAE Weight decreased, patients n (%) ([1]; Grade 4): 0 (0)
TEAE White blood cell count decreased, patients n (%) ([1]; Grade 4): 1 (2)
TEAE Abdominal pain, patients n (%) ([1]; Grades 1-2): 6 (10)
TEAE Anemia, patients n (%) ([1]; Grades 1-2): 6 (10)
TEAE Arthralgia, patients n (%) ([1]; Grades 1-2): 7 (12)
TEAE Back pain, patients n (%) ([1]; Grades 1-2): 5 (9)
TEAE Constipation, patients n (%) ([1]; Grades 1-2): 14 (24)
TEAE Cough, patients n (%) ([1]; Grades 1-2): 9 (16)
TEAE Decreased appetite, patients n (%) ([1]; Grades 1-2): 18 (31)
TEAE Diarrhea, patients n (%) ([1]; Grades 1-2): 35 (60)
TEAE Dizziness, patients n (%) ([1]; Grades 1-2): 8 (14)
TEAE Dyspnea, patients n (%) ([1]; Grades 1-2): 6 (10)
TEAE Edema peripheral, patients n (%) ([1]; Grades 1-2): 6 (10)
TEAE Fatigue, patients n (%) ([1]; Grades 1-2): 18 (31)
TEAE Hypokalemia, patients n (%) ([1]; Grades 1-2): 7 (12)
TEAE Hypomagnesaemia, patients n (%) ([1]; Grades 1-2): 7 (12)
TEAE Hypophosphatemia, patients n (%) ([1]; Grades 1-2): 2 (3)
TEAE Lymphocyte count decreased, patients n (%) ([1]; Grades 1-2): 3 (5)
TEAE Nausea, patients n (%) ([1]; Grades 1-2): 30 (52)
TEAE Neutropenia, patients n (%) ([1]; Grades 1-2): 2 (3)
TEAE Pain in extremity, patients n (%) ([1]; Grades 1-2): 6 (10)
TEAE Pyrexia, patients n (%) ([1]; Grades 1-2): 9 (16)
TEAE Thrombocytopenia, patients n (%) ([1]; Grades 1-2): 8 (14)
TEAE Upper respiratory tract infection, patients n (%) ([1]; Grades 1-2): 6 (10)
TEAE Vomiting, patients n (%) ([1]; Grades 1-2): 15 (26)
TEAE Weight decreased, patients n (%) ([1]; Grades 1-2): 7 (12)
TEAE White blood cell count decreased, patients n (%) ([1]; Grades 1-2): 3 (5)
Diarrhea, frequency ([1]; TEAE of any grade): 72%
Nausea, frequency ([1]; TEAE of any grade): 52%
Thrombocytopenia, frequency ([1]; TEAE of any grade): 38%
TEAE Abdominal pain, patients n (%) ([1]; Total): 9 (16)
TEAE Anemia, patients n (%) ([1]; Total): 13 (22)
TEAE Arthralgia, patients n (%) ([1]; Total): 7 (12)
TEAE Back pain, patients n (%) ([1]; Total): 6 (10)
TEAE Constipation, patients n (%) ([1]; Total): 14 (24)
TEAE Cough, patients n (%) ([1]; Total): 9 (16)
TEAE Decreased appetite, patients n (%) ([1]; Total): 18 (31)
TEAE Diarrhea, patients n (%) ([1]; Total): 42 (72)
TEAE Dizziness, patients n (%) ([1]; Total): 8 (14)
TEAE Dyspnea, patients n (%) ([1]; Total): 9 (16)
TEAE Edema peripheral, patients n (%) ([1]; Total): 6 (10)
TEAE Fatigue, patients n (%) ([1]; Total): 19 (33)
TEAE Hypokalemia, patients n (%) ([1]; Total): 13 (22)
TEAE Hypomagnesaemia, patients n (%) ([1]; Total): 7 (12)
TEAE Hypophosphatemia, patients n (%) ([1]; Total): 6 (10)
TEAE Lymphocyte count decreased, patients n (%) ([1]; Total): 6 (10)
TEAE Nausea, patients n (%) ([1]; Total): 30 (52)
TEAE Neutropenia, patients n (%) ([1]; Total): 11 (19)
TEAE Pain in extremity, patients n (%) ([1]; Total): 7 (12)
TEAE Pyrexia, patients n (%) ([1]; Total): 10 (17)
TEAE Thrombocytopenia, patients n (%) ([1]; Total): 22 (38)
TEAE Upper respiratory tract infection, patients n (%) ([1]; Total): 6 (10)
TEAE Vomiting, patients n (%) ([1]; Total): 16 (28)
TEAE Weight decreased, patients n (%) ([1]; Total): 8 (14)
TEAE White blood cell count decreased, patients n (%) ([1]; Total): 7 (12)
Non-evaluable patients who discontinued treatment due to TEAE, number ([1]; grade 2 vomiting (related), grade 4 hypercalcemia (unlikely related)): Two
Anemia, frequency ([1]; grade 3 or 4): 12%
Diarrhea, frequency ([1]; grade 3 or 4): 12%
Most common grade 3 or 4 adverse event (event name not given), frequency ([1]; grade 3 or 4): 24%
Neutropenia, frequency ([1]; grade 3 or 4): 15%
Patients who experienced grade 5 TEAE, number ([1]; respiratory failure, sepsis, tracheal obstruction, unlikely or not related to treatment): Three
Overall response rate ([2]; central or local testing): 64%
Estimated duration of response [2]: 13.6 month
